The values that follow come from patent US12037317B2, “Synthesis of 3-hydroxybutyryl 3-hydroxybutyrate and related compounds” (Buck Institute for Research on Aging, priority 2018, dated 2024).

The conditions of data set [1]: humans on a normal diet, ingested orally; cited from earlier work.
For data set [2] the following is noted: ingested as a drink, compared to equivalent calories as carbohydrate; cited from earlier work.
Data set [3] concerns T1, histone deacetylases (HDAC).
T1 construct: other: sodium salt; Fluor de Lys Green kit; same assay as S-BHB
The experiment in a line: in vitro HDAC assay (Fluor de Lys Green kit, Enzo). It counts as biochemical. The note with it: sodium salt. On the procedure: (§1) The activity of S-BHB and R-BHB enantiomers in inhibiting histone deacetylases was tested. This is an in vitro HDAC assay performed using the sodium salt of S-BHB and R-BHB with a commercial assay kit, Fluor de Lys Green from Enzo.

In data set [4] the test system is histone deacetylases (HDAC). The experiment in a line: in vitro HDAC assay (Fluor de Lys Green kit, Enzo). It counts as biochemical. The settings on record: comparison with a different, previously published assay. Here is the method:
as §1

The conditions of data set [5]: disclosed in co-owned U.S. Provisional Application No. 62/535,754; cited from earlier work.

Entries after “also recorded” stand apart in the source; their conditions may differ. Bounds are passed on as bounds.

As for `C[C@@H](O)CCOC(=O)C[C@@H](C)O` [R-3-hydroxybutyryl R-3-hydroxybutyrate, (R) 3-hydroxybutyryl (R) 3-hydroxy butyrate], the level of ketosis in data set [1] is roughly 6000 µM. Further, the “performance in cycling time-trial test” value in data set [2] is “improved performance”.

Regarding `C[C@H](O)CC(=O)O` [S-BHB, (S)-β-hydroxybutyric acid], the “inhibition of deacetylase activity (in words)” value in data set [3] was “even more effective than R-BHB; also recorded: dose-dependent inhibition”. Moreover, in data set [3] (Fluor de Lys Green kit, read-out: HDAC inhibition IC50), the IC50 was 7.3 mM. The “potency for HDAC inhibition relative to published potency of R-BHB in a different assay (Shimazu et al., Science 2013)” value in data set [4] was no more than 2 fold. Besides, in data set [5], the “serum half-life compared to the R-enantiomer” value is recorded as “substantially improved”.

In the case of `C[C@@H](O)CC(=O)O` [R-BHB, R-β-Hydroxybutyrate, reference compound], in data set [3], the “inhibition of deacetylase activity (in words)” value was “partial inhibition”. Moreover, the “maximum inhibition of HDAC activity” value in data set [3] (same assay as S-BHB) is recorded as “about 50%”.
